Assay [1] concerns Wild type MpGDH. Kind of assay: Maltose/glucose response current ratio, IPPD/MpGDH-immobilized screen-printed electrode (chronoamperometry). The class given is biochemical, Mucor prainii. The following applies: for Relative value (%) of Maltose/Glucose / Maltose/Glucose (%): 5 mM additive, immobilized wild type MpGDH; for Relative value (%) of Maltose/Glucose: no modifier = 100%; for Maltose/Glucose (%): 1 mM maltose, 1 mM glucose, +250 mV; for Modification of substrate specificity: immobilized MpGDH. An excerpt: (§1) The ratio (Mal/Glu) of the reactivity of the glucose dehydrogenase to maltose (Mal) relative to the reactivity thereof to glucose (Glu) can be determined by the following procedures. Onto a printed carbon electrode, N-isopropyl-N′-phenyl-p-phenylenediamine (IPPD) is immobilized by adsorption and a glucose dehydrogenase is immobilized by cross-linking using glutaraldehyde, wherein the glucose dehydrogenase is, for example, a glucose dehydrogenase from a microorganism of the genus Mucor or a glucose dehydrogenase from a microorganism of the genus Aspergillus. Chronoamperometry is performed by using a three-electrode system composed of a working electrode, a counter electrode, and a reference electrode and applying a potential of +250 mV (Ag/AgCl). Once the current value has become sufficiently constant, maltose is added to a final concentration of 1 mM in phosphate-buffered saline (PBS) (for example, maltose is added 100 seconds after the start of measurement). Next, once the current value has become sufficiently constant again after the addition of maltose, glucose is added to a final concentration of 1 mM in phosphate-buffered saline (PBS) (for example, glucose is added 100 seconds after the addition of maltose). The substrate specificity of glucose dehydrogenase can be evaluated by measuring the reactivity thereof to maltose when the reactivity thereof to glucose is considered as 100%. In the present specification, the ratio of the reactivity to maltose (Mal) relative to the reactivity to glucose (Glu) may be denoted as Mal/Glu. When the reactivity is evaluated based on the response current(s), the ratio of the reactivity may be expressed as the ratio of the response current(s).
(§2) 10 μL of 12 mg/ml MpGDH purified preparation, 10 μL of 15 mM each glucose analog, and 10 μL of 20 mM potassium phosphate buffer were mixed and allowed to stand for 2 hours or longer. N-isopropyl-N′-phenyl-p-phenylenediamine (IPPD) was immobilized by adsorption onto screen-printed electrodes (manufactured by DropSens, Product number: DRP-C110) and 12 μg of each MpGDH was applied to the electrodes and allowed to dry at room temperature. Lastly, the electrodes were placed in 25% glutaraldehyde vapor and the resulting electrodes were washed with pure water to obtain IPPD.MpGDH-immobilized electrodes. Next, the electrode was connected to an ALS electrochemical analyzer 814D via a dedicated connector (DRP-CAC). Then, the IPPD.GDH-immobilized electrode, an Ag/AgCl reference electrode, and a platinum counter electrode were immersed in PBS and chronoamperometric measurement was carried out. The applied voltage was set to +250 mV (Ag/AgCl). Once the current value had become sufficiently constant (about 100 seconds after the start of measurement), maltose was added to a final concentration of 1 mM in PBS. Next, subsequently to the addition of the maltose solution, once the current value had become sufficiently constant again (about 100 seconds after the addition of maltose), a glucose solution was added to a final concentration of 1 mM. The difference in the response current before and after the addition of maltose was recorded as the response current value of maltose, and the difference in the response current before and after the addition of glucose was recorded as the response current value of glucose. The value calculated by dividing the response current value of maltose by the response current value of glucose was expressed as maltose/glucose (%). […] Furthermore, when the maltose/glucose of MpGDH in the absence of a substrate specificity modifier is considered as 100%, the value in the presence of D-glucal became 69%, and the substrate specificity was modified.

In assay [2] the test system is GLD1 (glucose dehydrogenase (FAD-dependent), BBI Solutions). The experiment in a line: Maltose/glucose response current ratio, IPPD/GLD1-immobilized screen-printed electrode (chronoamperometry). The class given is biochemical, Aspergillus. The following applies: for Maltose/Glucose (%) / Relative value (%) of Maltose/Glucose: 5 mM additive; for Maltose/Glucose (%): 1 mM maltose, 1 mM glucose; for Relative value (%) of Maltose/Glucose: no modifier = 100%.
Excerpt: as §1, §2
In the same manner, glucose dehydrogenase (FAD-dependent) (from BBI Solutions, Product Code: GLD1, hereinafter denoted as GLD1) was used to examine the effect of the substrate specificity modifier.

The subject of assay [3] is MrdGDH. Kind of assay: Maltose/glucose response current ratio, IPPD/MrdGDH-immobilized screen-printed electrode (chronoamperometry). To be noted: for Maltose/Glucose (%) / Relative value (%) of Maltose/Glucose: 5 mM additive; for Maltose/Glucose (%): 1 mM maltose, 1 mM glucose; for Relative value (%) of Maltose/Glucose: no modifier = 100%. The class given is biochemical, Mucor RD056860.
Excerpt: as §1, §2
(§3) In the same manner, MrdGDH was used to examine the effect of the substrate specificity modifier.

Assay [4] concerns GLD1 (glucose dehydrogenase (FAD-dependent), BBI Solutions). The experiment in a line: Maltose/glucose response current ratio, unimmobilized GLD1 with mPMS (chronoamperometry). The class given is biochemical, Aspergillus. The following applies: for Maltose/Glucose (%) / Relative value (%) of Maltose/Glucose: 5 mM additive; for Maltose/Glucose (%): mPMS; for Relative value (%) of Maltose/Glucose: no modifier = 100%. The protocol:
(§4) 10 μL of 12 mg/ml MpGDH purified preparation, 10 μL of 15 mM each glucose analog, and 10 μL of 20 mM potassium phosphate buffer were mixed and allowed to stand for 2 hours or longer. Onto screen-printed electrodes (manufactured by DropSens, Product number: DRP-C110), 80 μL of PBS, 5 μL of each MpGDH solution, and 10 μL of 2 mg/ml mPMS solution were applied and mixed. Chronoamperometric measurement was carried out at an applied voltage of +100 mV (Ag/Ag+). Once the current value had become sufficiently constant (about 100 seconds after the start of measurement), a maltose solution was added to a final concentration of 5 mM and mixed by pipetting up and down. Measurement was stopped once the current value had become sufficiently constant. The difference in the response current before and after the addition of maltose was regarded as the response current value of maltose. In contrast, when an equivalent amount of pure water was added instead of the maltose solution, increase in the response current was not observed. The used printed electrode was thoroughly washed with ultrapure water and dried, and then chronoamperometric measurement was carried out in the same manner as above. A glucose solution was added instead of the maltose solution and the response current value of glucose was measured. The value calculated by dividing the response current value of maltose by the response current value of glucose was expressed as maltose/glucose (%).
In the same manner, GLD1 was used to examine the effect of the substrate specificity modifier.

Assay [5] concerns Wild type MpGDH. The experiment in a line: Maltose/glucose response current ratio, MWCNT/DPPD/MpGDH-immobilized carbon cloth electrode (chronoamperometry). The class given is biochemical, Mucor prainii. The following applies: for Maltose/Glucose Relative value (%): 50 mM additive, wild type MpGDH on carbon cloth electrode, no modifier = 100%; for Modification of substrate specificity of GDH: carbon cloth electrode, MpGDH. The protocol: The cloth was thoroughly dried and then washed with ultrapure water. Subsequently, 40 mg/ml wild type MpGDH and 20 μl of 100 mM various glucose analogs dissolved in ultrapure water were mixed in equal proportions, and 20 μl of the resulting solution was applied to the […] immobilized electrode. After being allowed to dry at room temperature, the electrode was placed in 25% glutaraldehyde vapor for 20 minutes to immobilize MpGDH by cross-linking. Then, the electrode was subjected to washing with ultrapure water in the same manner as above to obtain an […]-immobilized electrode. Next, this electrode was connected to an ALS electrochemical analyzer […]. Then, the […]-immobilized electrode, an Ag/AgCl reference electrode, and a platinum counter electrode were immersed in PBS, and chronoamperometric measurement was carried out. The applied voltage was set to +250 mV (Ag/AgCl). […] The difference in the response current before and after the addition of maltose was recorded as the response current value of maltose, and the difference in the response current before and after the addition of glucose was recorded as the response current value of glucose. The value calculated by dividing the response current value of maltose by the response current value of glucose was expressed as maltose/glucose (%). […] An […]-immobilized electrode was made in the same manner as Example 4 except that the application step was altered. That is, 20 μl of 40 mg/ml wild type MpGDH was mixed with 10 μl each of 100 mM glycerol and 100 mM L-iditol dissolved in ultrapure water, and 20 μl of the resulting solution was applied to the […] immobilized electrode for the application step. Then, chronoamperometric measurement was carried out according to the method described in Example 4, and the maltose/glucose (%) was calculated.

Another assay concerns MpGDH. The experiment in a line: Maltose/glucose response current ratio, unimmobilized MpGDH with mPMS (chronoamperometry). The class given is biochemical, Mucor prainii. To be noted: unimmobilized MpGDH; mPMS; 5 mM maltose; +100 mV. The protocol: as §4
The test system of assay [6] is MrdGDH. The experiment in a line: Maltose/glucose response current ratio, unimmobilized MrdGDH with mPMS (chronoamperometry). The class given is biochemical, Mucor RD056860. The following applies: for Maltose/Glucose (%) / Relative value (%) of Maltose/Glucose: 5 mM additive; for Maltose/Glucose (%): mPMS; for Relative value (%) of Maltose/Glucose: no modifier = 100%. The protocol: as §4, §3

As to `OC[C@H]1OC=C[C@@H](O)[C@@H]1O` [D-glucal], the “Relative value (%) of Maltose/Glucose” value in the assay on Wild type MpGDH [1] is given as 69%; in assay [2], 30%; in the assay on MrdGDH [3], 78%; in assay [4] it was 76%. Also, the “Modification of substrate specificity” value (in assay [2]; with MrdGDH [3]; in assay [4]) was “modified the substrate specificity” in each case. Also, the results for the “Maltose/Glucose (%)” value (in assay [2]; in the assay with MrdGDH [3]; in assay [4]) were 0.09%, 18.1% and 0.25%, respectively.
With `OCC(O)CO` [Glycerol, glycerol], in the assay with Wild type MpGDH [5], the “Maltose/Glucose Relative value (%)” value turned out to be 29% and the “Modification of substrate specificity of GDH” value (“Modification … of GDH” below) is “modified the substrate specificity”.
On to `OC[C@@H](O)[C@H](O)[C@@H](O)CO` [Xylitol, xylitol], for which, in the assay on Wild type MpGDH [5], the “Maltose/Glucose Relative value (%)” value is recorded as 21% and the “Modification … of GDH” value is on record as “modified the substrate specificity”.
Take `OC[C@@H](O)[C@@H](O)[C@@H](O)CO` [Ribitol, ribitol]: in the assay on Wild type MpGDH [1], the “Maltose/Glucose (%)” value is listed as 0.08%, the “Relative value (%) of Maltose/Glucose” value turned out to be 17% and the “Modification of substrate specificity” value was “modified the substrate specificity”. Further, the “maltose/glucose relative to MpGDH considered as 100%” value in the assay on MpGDH is 58%. Besides, in assay [4], the “Modification of substrate specificity” value is listed as “modified the substrate specificity”, the “Maltose/Glucose (%)” value was 0.29% and the “Relative value (%) of Maltose/Glucose” value is given as 88%. Besides, in the assay with MrdGDH [6], the “Modification of substrate specificity” value is listed as “modified the substrate specificity”, the “Maltose/Glucose (%)” value turned out to be 22% and the “Relative value (%) of Maltose/Glucose” value is 71%.
Turning to `OC[C@@H](O)[C@H](O)[C@@H](O)[C@H](O)CO` [D-iditol], the “Maltose/Glucose (%)” value is on record as 0.1% in the assay on Wild type MpGDH [1], 0.01% in assay [2], 19.3% in the assay on MrdGDH [3] and 21.6% with MrdGDH [6]. In addition, the “Relative value (%) of Maltose/Glucose” value in the assay with Wild type MpGDH [1] was found to be 22%; in assay [2], 4%; in the assay on MrdGDH [3], 83%; with MrdGDH [6], 70%. In addition, the “Modification of substrate specificity” value (with Wild type MpGDH [1]; in assay [2]; in the assay with MrdGDH [3]; in the assay with MrdGDH [6]) was “modified the substrate specificity” each time. In addition, the “maltose/glucose relative to MpGDH considered as 100%” value with MpGDH is on record as 84%.
As to `OC[C@@H](O)[C@@H](O)[C@H](O)[C@H](O)CO` [D-mannitol], in the assay with Wild type MpGDH [5], the “Maltose/Glucose Relative value (%)” value is 3% and the “Modification … of GDH” value is on record as “modified the substrate specificity”.
Take `OC[C@@H](O)[C@@H](O)[C@H](O)[C@@H](O)CO` [Sorbitol, sorbitol]: in the assay on Wild type MpGDH [1], the “Maltose/Glucose (%)” value was determined as 0.2%, the “Relative value (%) of Maltose/Glucose” value was determined as 43% and the “Modification of substrate specificity” value is recorded as “modified the substrate specificity”. In addition, in the assay with MrdGDH [3], the “Modification of substrate specificity” value is on record as “modified the substrate specificity”, the “Maltose/Glucose (%)” value was found to be 17% and the “Relative value (%) of Maltose/Glucose” value is 73%. The “maltose/glucose relative to MpGDH considered as 100%” value with MpGDH is 67%. Moreover, in the assay with MrdGDH [6], the “Modification of substrate specificity” value is reported as “modified the substrate specificity”, the “Maltose/Glucose (%)” value is on record as 23% and the “Relative value (%) of Maltose/Glucose” value amounted to 74%.
Regarding `OC[C@H]1O[C@H](O[C@H]2O[C@H](CO)[C@@H](O)[C@H](O)[C@H]2O)[C@H](O)[C@@H](O)[C@@H]1O` [Trehalose, trehalose], the “Modification of substrate specificity” value (in assay [2]; in the assay with MrdGDH [3]; in assay [4]; with MrdGDH [6]) was “modified the substrate specificity” each time. The “Maltose/Glucose (%)” value in assay [2] was 0.08%; with MrdGDH [3], 14.4%; in assay [4] it was 0.28%; in the assay on MrdGDH [6] it was 22%. Also, the “Relative value (%) of Maltose/Glucose” value in assay [2] is 35%; in the assay on MrdGDH [3], 62%; in assay [4], 85%; in the assay with MrdGDH [6] it was 71%. The “maltose/glucose relative to MpGDH considered as 100%” value in the assay on MpGDH stood at 72%.
